Measurements: patent US11642343B2, “Methods of treating splenomegaly” (Telios Pharma, Inc., priority 2020, dated 2023)
pEC50: −log10 of the molar value.

Assays:
BTK [1] = target: T1, BTK (Homo sapiens, UniProt Q06187); assay: Inhibition of BTK phosphorylation (activation) in myeloid cell line MOLM-13 basal; assay type: cell-based; parameters: endogenous in cells; host or cells: MOLM-13; conditions: incubated two hours with no stimulation
Procedure: (§1) Inhibition of BTK phosphorylation (activation) by Compound No. 128 (1-(4-(((6-amino-5-(4-phenoxyphenyl)pyrimidin-4-yl)amino)methyl)-4-fluoropiperidin-1-yl)prop-2-en-1-one) was assessed in healthy B-cells and in myeloid cell lines MOLM-13 basal and Hel-92 basal. Compound No. 128 was incubated with the myeloid cells lines for two hours with no stimulation and with healthy PBMC5 for two hours with 10 minutes of αIgM and H2O2 stimulation.

Hel-92 (V617F mut) cells = assay: In vitro inhibition of cell migration towards SDF-1 (CXCL12) through a permeable membrane; conditions: FIG. 1A and 1B
stimulated whole blood = assay: In vitro cytokine production in stimulated whole blood; assay type: cell-based; conditions: 24 hour incubation, FIG. 4
Procedure: The impact on in vitro cytokine production after exposure to Compound No. 128 was assessed in stimulated whole blood following a 24 hour incubation.

BTK [2] = target: T1, BTK; assay: Inhibition of BTK phosphorylation (activation) in myeloid cell line Hel-92 basal; assay type: cell-based; parameters: endogenous in cells; host or cells: MOLM-13; conditions: incubated two hours with no stimulation
Procedure: as §1

BTK [3] = target: T1, BTK; assay: Inhibition of BTK phosphorylation (activation) in healthy B-cells; assay type: cell-based; parameters: endogenous in cells; conditions: healthy PBMC incubated two hours with 10 minutes of αIgM and H2O2 stimulation
Procedure: as §1

MV-411 cells = assay: Fibronectin release: detachment of cells from fibronectin-coated plates; assay type: cell-based; conditions: MV-411 cells on fibronectin-coated plates; 1, 2, or 5 μm for two hours at 37° C.; CellTiter Glo; FIG. 2
Procedure: Fibronectin is an important component of the microenvironment extracellular matrix and attaches to cells through VLA-4 (integrin α4β1). Detachment of cells from fibronectin after exposure to Compound No. 128 was assessed by plating 1×10^6 MV-411 cells on fibronectin-coated plates (3 replicates). The cells were allowed to adhere overnight at 37° C. and then unadhered cells were washed away. Next, attached cells were treated with DMSO or Compound No. 128 (1, 2, or 5 μm) for two hours at 37° C. Detached cells were then collected and cell numbers determined using CellTiter Glo.

[4] = test system: CD11a (LFA-1), CD62L (L-selectin), and CD49d (VLA-4); assay type: in vivo, human; conditions: monocytes from blood of treated COVID-19 patients; FIG. 3

T1 sequence (Q06187 whole entry): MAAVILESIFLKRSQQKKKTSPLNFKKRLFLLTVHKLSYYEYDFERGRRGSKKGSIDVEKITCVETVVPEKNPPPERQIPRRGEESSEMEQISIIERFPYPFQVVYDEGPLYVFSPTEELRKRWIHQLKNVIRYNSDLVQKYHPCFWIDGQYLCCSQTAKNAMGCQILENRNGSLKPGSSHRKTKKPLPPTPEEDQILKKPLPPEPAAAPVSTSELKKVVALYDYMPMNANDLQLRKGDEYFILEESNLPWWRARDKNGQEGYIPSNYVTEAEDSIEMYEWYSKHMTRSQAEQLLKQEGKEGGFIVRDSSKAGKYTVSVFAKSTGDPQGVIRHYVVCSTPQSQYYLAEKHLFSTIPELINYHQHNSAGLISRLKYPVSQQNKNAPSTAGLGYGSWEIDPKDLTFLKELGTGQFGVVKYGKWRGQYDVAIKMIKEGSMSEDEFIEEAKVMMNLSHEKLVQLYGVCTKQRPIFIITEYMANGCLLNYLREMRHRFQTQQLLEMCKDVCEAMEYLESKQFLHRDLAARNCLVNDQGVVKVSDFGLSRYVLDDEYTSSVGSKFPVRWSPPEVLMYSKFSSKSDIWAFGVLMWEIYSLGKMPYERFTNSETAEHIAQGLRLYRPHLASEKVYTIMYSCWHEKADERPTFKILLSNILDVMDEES

## C=CC(=O)N1CCC(F)(CNc2ncnc(N)c2-c2ccc(Oc3ccccc3)cc2)CC1 [Compound No. 128, 1-(4-(((6-amino-5-(4-phenoxyphenyl)pyrimidin-4-yl)amino)methyl)-4-fluoropiperidin-1-yl)prop-2-en-1-one]
BTK [1]
  pEC50: 7.67
Hel-92 (V617F mut) cells
  inhibition of cell migration towards SDF-1: inhibit cell migration towards SDF-1
Stimulated whole blood
  cytokine and chemokine production: decreased cytokine and chemokine production upon cellular stimulation
BTK [2]
  pEC50: 7.71
BTK [3]
  pEC50: 7.77
MV-411 cells
  detachment of cells from fibronectin: cells detached from fibronectin
[4]
  levels of surface molecules CD11a (LFA-1), CD62L (L-selectin), CD49d (VLA-4): reduced levels of surface molecules in some patients
